SMILES strings stand for the structures. In brackets after ≈: the same amount, converted by molar mass.

The test system of assay [1] is Trypanosoma cruzi. As to the kind of experiment: Antitrypanosomal activity against Trypanosoma cruzi Y epimastigotes after 48 hrs by MTT assay. It counts as functional, organism-based. A general note: Formazan colour is commonly taken as a measure of viable cells.
The test system of assay [2] is Trypanosoma cruzi. As to the kind of experiment: Effect on oxygen uptake in Trypanosoma cruzi Y epimastigotes assessed as rate of oxygen consumption at 80 uM relative to control. Type of assay: functional.
The subject of assay [3] is Trypanosoma cruzi. Nature of the assay: Effect on oxygen uptake in Trypanosoma cruzi Y epimastigotes assessed as rate of oxygen consumption at 120 uM relative to control. It counts as functional.
Assay [4] concerns Trypanosoma cruzi. Nature of the assay: Effect on oxygen redox cycling in Trypanosoma cruzi Y epimastigotes assessed as rate of oxygen consumption at 80 uM in presence of cyanide relative to control. It counts as functional.
For assay [5], the system named is Trypanosoma cruzi. Nature of the assay: Effect on oxygen redox cycling in Trypanosoma cruzi Y epimastigotes assessed as rate of oxygen consumption at 120 uM in presence of cyanide relative to control. Type of assay: functional.
In assay [6] the test system is Trypanosoma cruzi. Nature of the assay: Antitrypanosomal activity against Trypanosoma cruzi EP epimastigotes after 96 hrs. Type of assay: functional.
Assay [7] concerns Trypanosoma cruzi. As to the kind of experiment: Antitrypanosomal activity against Trypanosoma cruzi EP amastigotes. Type of assay: functional, organism-based.
The test system of assay [8] is Trypanosoma cruzi. Nature of the assay: Antitrypanosomal activity against Trypanosoma cruzi EP amastigotes in Vero cells after 96 hrs. It counts as functional.
The test system of the next assay is Vero. Nature of the assay: Cytotoxicity against african green monkey Vero cells. Type of assay: cell-based. Conditions: Chlorocebus sabaeus.
For assay [9], the system named is Trypanosoma cruzi. As to the kind of experiment: Inhibition of sterol biosynthesis in Trypanosoma cruzi EP epimastigotes assessed as exogenous cholesterol levels at 10 uM after 120 hrs. Type of assay: functional. Details: scale not given: the % may be the effect or the level left.
Assay [10] has as its system Trypanosoma cruzi. As to the kind of experiment: Inhibition of sterol biosynthesis in Trypanosoma cruzi EP epimastigotes assessed as endogenous squalene levels at 10 uM after 120 hrs. It counts as functional. Details: scale not given: the % may be the effect or the level left.
Assay [11] has as its system Trypanosoma cruzi. As to the kind of experiment: Inhibition of sterol biosynthesis in Trypanosoma cruzi EP epimastigotes assessed as endogenous squalene levels at 30 uM after 120 hrs. It counts as functional. Details: scale not given: the % may be the effect or the level left.
Assay [12] deals with Trypanosoma cruzi. As to the kind of experiment: Inhibition of sterol biosynthesis in Trypanosoma cruzi EP epimastigotes assessed as ergosterol levels at 30 uM after 120 hrs. It counts as functional. Also on record: scale not given: the % may be the effect or the level left.
Assay [13] has as its system Trypanosoma cruzi. Nature of the assay: Inhibition of sterol biosynthesis in Trypanosoma cruzi EP epimastigotes assessed as 24-ethyl-5,7,22-cholestatrien-3beta-ol levels at 30 uM after 120 hrs. Type of assay: functional. Also on record: scale not given: the % may be the effect or the level left.
Assay [14] concerns Trypanosoma cruzi. As to the kind of experiment: Inhibition of sterol biosynthesis in Trypanosoma cruzi EP epimastigotes assessed as ergosta-5,7-24(24')-trien-3beta-ol levels at 30 uM after 120 hrs. It counts as functional. Details: scale not given: the % may be the effect or the level left.
For assay [15], the system named is Trypanosoma cruzi. Nature of the assay: Inhibition of sterol biosynthesis in Trypanosoma cruzi EP epimastigotes assessed as ergosta-5,7-dien-3beta-ol levels at 30 uM after 120 hrs. Type of assay: functional. Also on record: scale not given: the % may be the effect or the level left.
Assay [16] relates to Trypanosoma cruzi. Nature of the assay: Inhibition of sterol biosynthesis in Trypanosoma cruzi EP epimastigotes assessed as exogenous cholesterol levels at 30 uM after 120 hrs. It counts as functional. Also on record: scale not given: the % may be the effect or the level left.
Assay [17] deals with Trypanosoma cruzi. Nature of the assay: Inhibition of sterol biosynthesis in Trypanosoma cruzi EP epimastigotes assessed as ergosterol levels at 3 uM after 120 hrs. Type of assay: functional. Details: scale not given: the % may be the effect or the level left.
The subject of assay [18] is Trypanosoma cruzi. As to the kind of experiment: Inhibition of sterol biosynthesis in Trypanosoma cruzi EP epimastigotes assessed as ergosterol levels at 10 uM after 120 hrs. It counts as functional. Details: scale not given: the % may be the effect or the level left.
The test system of assay [19] is Trypanosoma cruzi. As to the kind of experiment: Inhibition of sterol biosynthesis in Trypanosoma cruzi EP epimastigotes assessed as 24-ethyl-5,7,22-cholestatrien-3beta-ol levels at 3 uM after 120 hrs. It counts as functional. Details: scale not given: the % may be the effect or the level left.
Assay [20] relates to Trypanosoma cruzi. Nature of the assay: Inhibition of sterol biosynthesis in Trypanosoma cruzi EP epimastigotes assessed as ergosta-5,7-24(24')-trien-3beta-ol levels at 3 uM after 120 hrs. It counts as functional. Details: scale not given: the % may be the effect or the level left.
Assay [21] has as its system Trypanosoma cruzi. As to the kind of experiment: Inhibition of sterol biosynthesis in Trypanosoma cruzi EP epimastigotes assessed as ergosta-5,7-dien-3beta-ol levels at 3 uM after 120 hrs. It counts as functional. Also on record: scale not given: the % may be the effect or the level left.
Assay [22] has as its system Trypanosoma cruzi. As to the kind of experiment: Inhibition of sterol biosynthesis in Trypanosoma cruzi EP epimastigotes assessed as 24-ethyl-5,7-cholestadien-3beta-ol levels at 3 uM after 120 hrs. Details: scale not given: the % may be the effect or the level left. It counts as functional.
For assay [23], the system named is Trypanosoma cruzi. Nature of the assay: Effect on oxygen uptake in Trypanosoma cruzi Y epimastigotes assessed as rate of oxygen consumption at 60 uM relative to control. It counts as functional.
For assay [24], the system named is Trypanosoma cruzi. Nature of the assay: Effect on oxygen redox cycling in Trypanosoma cruzi Y epimastigotes assessed as rate of oxygen consumption at 60 uM in presence of cyanide relative to control. It counts as functional.
In assay [25] the test system is Trypanosoma cruzi. Nature of the assay: Inhibition of sterol biosynthesis in Trypanosoma cruzi EP epimastigotes assessed as exogenous cholesterol levels at 3 uM after 120 hrs. It counts as functional. Also on record: scale not given: the % may be the effect or the level left.
Assay [26] deals with Trypanosoma cruzi. As to the kind of experiment: Inhibition of sterol biosynthesis in Trypanosoma cruzi EP epimastigotes assessed as endogenous squalene levels at 3 uM after 120 hrs. Details: scale not given: the % may be the effect or the level left. It counts as functional.
Assay [27] deals with Trypanosoma cruzi. As to the kind of experiment: Effect on oxygen uptake in Trypanosoma cruzi Y epimastigotes assessed as rate of oxygen consumption at 166 uM relative to control. Type of assay: functional.
The test system of assay [28] is Trypanosoma cruzi. As to the kind of experiment: Effect on oxygen redox cycling in Trypanosoma cruzi Y epimastigotes assessed as rate of oxygen consumption at 166 uM in presence of cyanide relative to control. It counts as functional.
The subject of assay [29] is Trypanosoma cruzi. As to the kind of experiment: Inhibition of sterol biosynthesis in Trypanosoma cruzi EP epimastigotes assessed as 24-ethyl-5,7-cholestadien-3beta-ol levels at 10 uM after 120 hrs. Type of assay: functional. Also on record: scale not given: the % may be the effect or the level left.
Assay [30] relates to Trypanosoma cruzi. Nature of the assay: Inhibition of sterol biosynthesis in Trypanosoma cruzi EP epimastigotes assessed as ergosta-5,7-dien-3beta-ol levels at 10 uM after 120 hrs. Type of assay: functional. Details: scale not given: the % may be the effect or the level left.
For assay [31], the system named is Trypanosoma cruzi. Nature of the assay: Inhibition of sterol biosynthesis in Trypanosoma cruzi EP epimastigotes assessed as ergosta-5,7-24(24')-trien-3beta-ol levels at 10 uM after 120 hrs. It counts as functional. Details: scale not given: the % may be the effect or the level left.

Broadly, the IC50 is the midpoint of a concentration-inhibition curve. What is called MIC is the least concentration at which growth counts as inhibited. As for `C=C(C)CNC(=O)N/N=C/c1ccc([N+](=O)[O-])o1`, the IC50 in the assay with Trypanosoma cruzi [1] was 3.8 µM; with Trypanosoma cruzi [7], 0.9 µM; in the assay on Vero, 32.1 µM. Also, the Activity in the assay on Trypanosoma cruzi [2] is recorded as 110%; in the assay on Trypanosoma cruzi [3], 148%; in the assay with Trypanosoma cruzi [4], 33%; in the assay on Trypanosoma cruzi [5] it was 27%; in the assay with Trypanosoma cruzi [9], 31.9%; in the assay on Trypanosoma cruzi [10], 68.1%. For the same compound, the MIC in the assay with Trypanosoma cruzi [6] and in the assay with Trypanosoma cruzi [8] was 10 µM (≈ 2.52 µg/mL) throughout.

For `C=CCOC(=O)N/N=C/C=C/c1ccc([N+](=O)[O-])o1`, the Activity was found to be 36.4% in the assay with Trypanosoma cruzi [11]; 15% with Trypanosoma cruzi [12]; 10.6% in the assay with Trypanosoma cruzi [13]; 4% in the assay with Trypanosoma cruzi [14]; 4.6% in the assay on Trypanosoma cruzi [15]; 29.4% with Trypanosoma cruzi [16]. For the same compound, the MIC in the assay on Trypanosoma cruzi [6] is > 30 µM.

Regarding `O=C(N/N=C/c1ccc([N+](=O)[O-])o1)Oc1ccccc1`, the Activity in the assay on Trypanosoma cruzi [17] came to 7.6%; in the assay with Trypanosoma cruzi [18], 4.4%; in the assay with Trypanosoma cruzi [19], 9%; in the assay on Trypanosoma cruzi [20], 2.4%; in the assay with Trypanosoma cruzi [21], 6%; in the assay on Trypanosoma cruzi [22], 3.6%. Further, the Activity with Trypanosoma cruzi [23] was found to be 105%; in the assay with Trypanosoma cruzi [24], 31%; in the assay on Trypanosoma cruzi [25], 32.3%; in the assay with Trypanosoma cruzi [9], 35%; in the assay on Trypanosoma cruzi [26], 39.1%; with Trypanosoma cruzi [10] it was 60.6%. For the same compound, the 50% inhibitory concentration (IC50) stood at 10.6 µM in the assay with Trypanosoma cruzi [1], 2.3 µM in the assay on Trypanosoma cruzi [7] and 19.4 µM with Vero. The minimum inhibitory concentration (MIC) against Trypanosoma cruzi [6] stood at 10 µM (≈ 2.75 µg/mL); in the assay with Trypanosoma cruzi [8], 30 µM (≈ 8.26 µg/mL).

`O=C(N/N=C/C=C/c1ccc([N+](=O)[O-])o1)Oc1ccccc1`: the Activity in the assay with Trypanosoma cruzi [17] is recorded as 7.9%; in the assay on Trypanosoma cruzi [27], 88%; in the assay on Trypanosoma cruzi [28] it was 8%; in the assay with Trypanosoma cruzi [25], 46.9%; in the assay with Trypanosoma cruzi [9] it was 8.1%; in the assay with Trypanosoma cruzi [26], 45.2%. Further, in the assay on Trypanosoma cruzi [10], the Activity is recorded as 91.9%. Besides, the figures for the IC50 in the assay with Trypanosoma cruzi [1], with Trypanosoma cruzi [7] and in the assay on Vero were 6.7 µM, 0.31 µM and 9.1 µM, respectively. The MIC with Trypanosoma cruzi [6] and in the assay on Trypanosoma cruzi [8] was 3 µM (≈ 0.904 µg/mL) each time.

Consider `C=C(C)CNC(=O)N/N=C/C=C/c1ccc([N+](=O)[O-])o1`, for which the Activity with Trypanosoma cruzi [17] turned out to be 18.4%; with Trypanosoma cruzi [19], 10.8%; with Trypanosoma cruzi [21], 6.1%; in the assay with Trypanosoma cruzi [25], 20.3%; with Trypanosoma cruzi [9], 9.2%; with Trypanosoma cruzi [26] it was 44.4%. Further, the Activity in the assay on Trypanosoma cruzi [10] is listed as 90.8%. This compound also registered a minimum inhibitory concentration (MIC) against Trypanosoma cruzi [6] of 10 µM (≈ 2.78 µg/mL).

As to `O=C(N/N=C/C=C/c1ccc([N+](=O)[O-])o1)OC/C=C/c1ccccc1`, the Activity with Trypanosoma cruzi [17] is 21%; with Trypanosoma cruzi [19] it was 16%; in the assay with Trypanosoma cruzi [20], 2.1%; in the assay with Trypanosoma cruzi [21] it was 8%; in the assay on Trypanosoma cruzi [29] it was 6.7%; with Trypanosoma cruzi [2], 89%. Moreover, the Activity is on record as 160% in the assay with Trypanosoma cruzi [3]; 38% with Trypanosoma cruzi [4]; 40% with Trypanosoma cruzi [5]; 33.9% in the assay on Trypanosoma cruzi [25]; 6.7% with Trypanosoma cruzi [9]; 19% in the assay on Trypanosoma cruzi [26]. Further, the Activity with Trypanosoma cruzi [10] stood at 93.3%. The IC50 stood at 3.7 µM with Trypanosoma cruzi [1], 0.65 µM in the assay on Trypanosoma cruzi [7] and 11.1 µM in the assay on Vero. The MIC in the assay on Trypanosoma cruzi [6] and with Trypanosoma cruzi [8] was 10 µM (≈ 3.41 µg/mL) each time.

For `C=CCOC(=O)N/N=C/c1ccc([N+](=O)[O-])o1`, the Activity came out at 33.1% in the assay with Trypanosoma cruzi [11], 7% with Trypanosoma cruzi [12], 6.8% in the assay with Trypanosoma cruzi [13] and 53.1% in the assay on Trypanosoma cruzi [16]. This compound also displayed an MIC against Trypanosoma cruzi [6] of 30 µM (≈ 7.18 µg/mL).

With `O=C(N/N=C/c1ccc([N+](=O)[O-])o1)OC/C=C/c1ccccc1`, the Activity with Trypanosoma cruzi [11] is recorded as 64.4%; in the assay on Trypanosoma cruzi [18], 10.4%; in the assay with Trypanosoma cruzi [12] it was 5.8%; in the assay with Trypanosoma cruzi [13], 7.8%; in the assay on Trypanosoma cruzi [30] it was 5%; with Trypanosoma cruzi [31] it was 2.3%. In addition, the Activity with Trypanosoma cruzi [9] stood at 52.5%; in the assay with Trypanosoma cruzi [16], 22%; in the assay with Trypanosoma cruzi [10], 16%. The same compound registered an MIC in the assay on Trypanosoma cruzi [6] of 30 µM (≈ 9.46 µg/mL).

Source of the values: ChEMBL document CHEMBL1140771, “Heteroallyl-containing 5-nitrofuranes as new anti-Trypanosoma cruzi agents with a dual mechanism of action” (Bioorg Med Chem, 2008).
